Experimental data reported in PMC10533412, “Phosphoantigens glue butyrophilin 3A1 and 2A1 to activate Vγ9Vδ2 T cells” (Nature, 2023).
Values joined by “and” are separate entries in the source; they are usually repeats but may differ in a detail not shown here. Identical values can stand only once.

Tests used:
[1] = target: T1, preconditioned BTN2A1–BTN3A1 B30.2 complex (Homo sapiens, UniProt O00481+Q7KYR7); test: ITC: pAg binding to the preconditioned BTN2A1 B30.2 and BTN3A1 B30.2 complex; details: ITC; Supplementary Table 4; read-out: KD (M) for phosphoantigen binding to the pre-conditioned 2A1 B30.2 and 3A1 B30.2
T1 construct: The BTN3A1 B30.2 domain was expressed and purified as described previously; 6xHis; made in house; host or cells: Escherichia coli BL21 (DE3) for BTN2A1 B30.2
Procedure: ITC binding fits were calculated using MicroCal Analysis software.
For HMBPP binding to the preconditioned BTN2A1 B30.2 and BTN3A1 B30.2 complex, BTN2A1 B30.2 (20 µM) and BTN3A1 B30.2 (10 µM) were incubated in the buffer at a 2:1 ratio and loaded into the sample cell, and the injection syringe was filled with buffer containing 100 µM HMBPP.
For DMAPP/IPP binding to the preconditioned BTN2A1 B30.2 and BTN3A1 B30.2 complex, BTN2A1 B30.2 (200 µM) and BTN3A1 B30.2 (100 µM) were incubated in buffer at a 2:1 ratio and loaded into the sample cell, and the injection syringe was filled with buffer containing 1 mM DMAPP/IPP.
For other pAgs, their concentrations were adjusted to 500 µM, and BTN2A1 B30.2 and BTN3A1 B30.2 were adjusted to 100 µM and 50 µM at a 2:1 ratio.

MIA PaCa-2 cells [2] = test: Cell killing assay: cytotoxicity of Vγ9Vδ2 T cells towards pAg- or zoledronate-treated MIA PaCa-2 cells (luciferase); type: cell-based, human; details: Homo sapiens, MIA PaCa-2, Supplementary Table 4; read-out: EC50 (M) for MIA PaCa-2 cell lysis mediated by HMBPP analogs and Vγ9Vδ2 T cells
Procedure: MIA PaCa-2 cells were infected with lentivirus bearing luciferase transgene. Luciferase-positive cells were plated at 5.0 × 10^3 cells per well in 384-well plates 1 day before transfection. All plasmids were transfected into BTN2A^−/− MIA PaCa-2 (BTN2A1/BTN2A2 KO) cells using Lipofectamine 2000 reagent. […] Stable-lite luciferase (Vazyme) was added to each well and the luciferase signal was immediately measured by using the PerkinElmer EnVision microplate reader.
Percentage of lysis was calculated using the following equation: percentage of specific lysis = (maximum luciferase − experimental luciferase)/maximum luciferase × 100.

[3] = test system: BTN2A−/− MIA PaCa-2 (BTN2A1/BTN2A2 KO) cells; test: TNF secretion by Vγ9Vδ2 T cells co-cultured with zoledronate-treated BTN2A−/− MIA PaCa-2 cells expressing BTN2A1 variants; type: cell-based, human; details: n=6
Procedure: (§1) BTN2A^−/− MIA PaCa-2 (BTN2A1/BTN2A2 KO) cells were plated at 1.0 × 10^4 cells per well in 96-well plates 1 day before transfection. […] The medium was then aspirated and cells were washed four times with PBS at room temperature. Vγ9Vδ2 T cells (1.0 × 10^5 cells per well) were then added and cocultured with MIA PaCa-2 cells, and culture supernatants were collected after 16 h and assayed for TNF levels using a TNF human uncoated ELISA kit (Invitrogen). The assay of CHO-K1 cells (infected with lentivirus of BTN3A1 and CD80) was performed according to the same methods as for the MIA PaCa-2 cells[22],[23].

[4] = test system: BTN2A−/− MIA PaCa-2 (BTN2A1/BTN2A2 KO) cells; test: IFNγ release from Vγ9Vδ2 T cells in response to zoledronate stimulation of BTN2A−/− MIA PaCa-2 cells expressing BTN2A1 variants; type: cell-based, human; parameters: unit not given here; details: 6 values
[5] = test system: BTN3A1+CD80+ CHO-K1 cells; test: TNF secretion by Vγ9Vδ2 T cells co-cultured with zoledronate-treated BTN3A1+CD80+ CHO-K1 cells; type: cell-based, Chinese hamster; details: Fig. 3c, ii
Procedure: as §1

MIA PaCa-2 cells [6] = test: AFM-SCFS binding force between a Vγ9Vδ2 T cell and a MIA PaCa-2 cell; type: cell-based, human; parameters: binding force, Mean, Fig. 6b / binding force, Median, Fig. 6b: unit not given here; details: second panel (Ctrl, ZOL, HMBPP-15, HMBPP-15+ZOL)
Procedure: The AFM-SCFS analysis procedure was performed using the JPK CellHesion unit as previously described, and closely followed our previously reported protocol for APCs[4]. […] The glass disks were quickly transferred to an AFM adapter with immediate addition of 1 ml of fresh medium (DMEM: 10% FBS and 1% penicillin–streptomycin). […] The raw data were normalized to the background readings. Blank readings for each set of affinity measurements (Vγ9Vδ2 T cells touching the glass surface) were collected immediately before each assay to perform background subtraction. All data were analysed using the JPK image processing software. […] The following steps were the same as described above.

[7] = test system: BTN2A−/− MIA PaCa-2 (BTN2A1/BTN2A2 KO) cells; test: Cell killing assay with BTN2A−/− MIA PaCa-2 (BTN2A1/BTN2A2 KO) cells expressing BTN2A1/BTN2A2 variants; details: cells expressing the BTN2A1 variant given as label; for Mean response (Fig. 6h, Dunnett test details): N = 6

T1 sequence (O00481 322-513 limits assumed): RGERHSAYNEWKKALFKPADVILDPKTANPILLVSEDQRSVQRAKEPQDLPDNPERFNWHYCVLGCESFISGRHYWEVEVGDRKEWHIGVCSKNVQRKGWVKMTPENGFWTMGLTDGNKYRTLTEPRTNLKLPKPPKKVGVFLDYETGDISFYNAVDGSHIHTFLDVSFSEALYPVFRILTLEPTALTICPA
T1 sequence (Q7KYR7 316-527 limits assumed): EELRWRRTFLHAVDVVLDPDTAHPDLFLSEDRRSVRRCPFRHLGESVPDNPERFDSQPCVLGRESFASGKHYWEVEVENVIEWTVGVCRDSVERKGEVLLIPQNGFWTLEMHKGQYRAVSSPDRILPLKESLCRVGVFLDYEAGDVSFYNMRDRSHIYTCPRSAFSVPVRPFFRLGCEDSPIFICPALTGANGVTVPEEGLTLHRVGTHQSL

Which results are given for `C/C(=C\COP(=O)(O)OP(=O)(O)O)C(C)O` (stereo not drawn) [Compound 6, (E)-4-hydroxy-3-methylpent-2-en-1-yl diphosphate]?
Kd [1]: 1.69e-05 M; EC50 (MIA PaCa-2 cells [2]): 1.8e-06 M

What does the source list for `O=P(O)(O)C(O)(Cn1ccnc1)P(=O)(O)O` [Zoledronate]?
TNF secretion by Vγ9Vδ2 T cells, Mean ([3]; Fig. 3c, i, zoledronate-treated cells expressing BTN2A1 D455G/E457R): 6.214; TNF secretion by Vγ9Vδ2 T cells, Mean ([3]; Fig. 3c, i, zoledronate-treated cells expressing BTN2A1 R477A): 8.398; TNF secretion by Vγ9Vδ2 T cells, Mean ([3]; Fig. 3c, i, zoledronate-treated cells expressing BTN2A1 T510A): 6.658; TNF secretion by Vγ9Vδ2 T cells, Mean ([3]; Fig. 3c, i, zoledronate-treated cells expressing BTN2A1 T510M): 7.401; TNF secretion by Vγ9Vδ2 T cells, Mean ([3]; Fig. 3c, i, zoledronate-treated cells expressing BTN2A1 V511A): 7.427; TNF secretion by Vγ9Vδ2 T cells, Mean ([3]; Fig. 3c, i, zoledronate-treated cells expressing BTN2A1 V511D): 6.982; TNF secretion by Vγ9Vδ2 T cells, Mean ([3]; Fig. 3c, i, zoledronate-treated cells expressing BTN2A1 V511W): 7.617; TNF secretion by Vγ9Vδ2 T cells, Mean ([3]; Fig. 3c, i, zoledronate-treated cells expressing BTN2A1 WT): 158.2; TNF secretion by Vγ9Vδ2 T cells, Mean ([3]; Fig. 3c, i, zoledronate-treated cells expressing BTN2A1 ∆C): 9.364; TNF secretion by Vγ9Vδ2 T cells, Mean ([3]; Fig. 3c, i, zoledronate-treated cells, NT): 7.859; TNF secretion by Vγ9Vδ2 T cells, Mean ([3]; Fig. 3d, zoledronate-treated cells expressing BTN2A1 H471G/I472A/Y473A): 9.274; TNF secretion by Vγ9Vδ2 T cells, Mean ([3]; Fig. 3d, zoledronate-treated cells expressing BTN2A1 R449A/R469A): 16.58; TNF secretion by Vγ9Vδ2 T cells, Mean ([3]; Fig. 3d, zoledronate-treated cells expressing BTN2A1 WT): 182.7; TNF secretion by Vγ9Vδ2 T cells, Mean ([3]; Fig. 3d, zoledronate-treated cells expressing BTN2A1 Y464A-T474A): 9.364; TNF secretion by Vγ9Vδ2 T cells, Mean ([3]; Fig. 3d, zoledronate-treated cells expressing BTN2A1 ∆C): 0.6146; TNF secretion by Vγ9Vδ2 T cells, Mean ([3]; Fig. 3d, zoledronate-treated cells, NT): 9.612; Mean (Extended Data Fig. 7b) ([4]; NT cells): 2.056; Mean (Extended Data Fig. 7b) ([4]; cells expressing BTN2A1 E286G): 48.61; Mean (Extended Data Fig. 7b) ([4]; cells expressing BTN2A1 E300G): 78.93; Mean (Extended Data Fig. 7b) ([4]; cells expressing BTN2A1 E307G): 40.34; Mean (Extended Data Fig. 7b) ([4]; cells expressing BTN2A1 E316G): 128.5; Mean (Extended Data Fig. 7b) ([4]; cells expressing BTN2A1 F324G): 95.24; Mean (Extended Data Fig. 7b) ([4]; cells expressing BTN2A1 K276G): 55.14; Mean (Extended Data Fig. 7b) ([4]; cells expressing BTN2A1 K283G): 42.21; Mean (Extended Data Fig. 7b) ([4]; cells expressing BTN2A1 K304G): 117; Mean (Extended Data Fig. 7b) ([4]; cells expressing BTN2A1 K311G): 59.44; Mean (Extended Data Fig. 7b) ([4]; cells expressing BTN2A1 L272G): 81.83; Mean (Extended Data Fig. 7b) ([4]; cells expressing BTN2A1 L279G): 16.84; Mean (Extended Data Fig. 7b) ([4]; cells expressing BTN2A1 L294G): 44.72; Mean (Extended Data Fig. 7b) ([4]; cells expressing BTN2A1 L297G): 44.28; Mean (Extended Data Fig. 7b) ([4]; cells expressing BTN2A1 L314G): 23.31; Mean (Extended Data Fig. 7b) ([4]; cells expressing BTN2A1 L318G): 13.17; Mean (Extended Data Fig. 7b) ([4]; cells expressing BTN2A1 L325C/A327C): 59.39; Mean (Extended Data Fig. 7b) ([4]; cells expressing BTN2A1 L325G): 7.962; Mean (Extended Data Fig. 7b) ([4]; cells expressing BTN2A1 R290A): 84.46; Mean (Extended Data Fig. 7b) ([4]; cells expressing BTN2A1 W320A): 70.37; Mean (Extended Data Fig. 7b) ([4]; cells expressing BTN2A1 WT): 151.4; TNF secretion by Vγ9Vδ2 T cells, Mean ([5]; zoledronate-treated cells expressing BTN2A1 D455G/E457R, n=6): 11.14; TNF secretion by Vγ9Vδ2 T cells, Mean ([5]; zoledronate-treated cells expressing BTN2A1 R477A, n=6): 8.53; TNF secretion by Vγ9Vδ2 T cells, Mean ([5]; zoledronate-treated cells expressing BTN2A1 T510A, n=6): 7.472; TNF secretion by Vγ9Vδ2 T cells, Mean ([5]; zoledronate-treated cells expressing BTN2A1 T510M, n=6): 7.874; TNF secretion by Vγ9Vδ2 T cells, Mean ([5]; zoledronate-treated cells expressing BTN2A1 V511A, n=6): 10.17; TNF secretion by Vγ9Vδ2 T cells, Mean ([5]; zoledronate-treated cells expressing BTN2A1 V511D, n=6): 6.367; TNF secretion by Vγ9Vδ2 T cells, Mean ([5]; zoledronate-treated cells expressing BTN2A1 V511W, n=6): 8.466; TNF secretion by Vγ9Vδ2 T cells, Mean ([5]; zoledronate-treated cells expressing BTN2A1 WT, n=5): 465.4; TNF secretion by Vγ9Vδ2 T cells, Mean ([5]; zoledronate-treated cells expressing BTN2A1 ∆C, n=6): 7.982; TNF secretion by Vγ9Vδ2 T cells, Mean ([5]; zoledronate-treated cells, NT, n=6): 20.41; binding force, Mean, Fig. 6b (MIA PaCa-2 cells [6]): 1524; binding force, Median, Fig. 6b (MIA PaCa-2 cells [6]): 1525

With `C/C(=C\COP(=O)(O)C(Cl)(Cl)P(=O)(O)O)CO` [Compound 8, (E)-(dichloro(hydroxy((4-hydroxy-3-methylbut-2-en-1yl)oxy)phosphoryl)methyl diphosphate] as the molecule, how does the Kd [1] read?
Its Kd is 1.25e-05 M.

And the EC50 (MIA PaCa-2 cells [2])?
Its EC50 is 9.28e-07 M.

With `C/C(=C\COP(=O)(O)C(F)(F)P(=O)(O)O)CO` [Compound 10, (E)-(difluoro(hydroxy((4-hydroxy-3-methylbut-2-en-1-yl)oxy)phosphory)methyl)phosphonic acid] as the molecule, how does the Kd [1] read?
Its Kd is 1.15e-05 M.

And the EC50 (MIA PaCa-2 cells [2])?
The EC50 was 5.33e-06 M.

Which results are given for 2A1 WT?
Mean response (Fig. 6h, Dunnett test details) ([7]; Row 1 (-6.4)): 1.143; Mean response (Fig. 6h, Dunnett test details) ([7]; Row 2 (-5.8)): 3.802; Mean response (Fig. 6h, Dunnett test details) ([7]; Row 3 (-5.2)): 14.85; Mean response (Fig. 6h, Dunnett test details) ([7]; Row 4 (-4.6)): 21.48; Mean response (Fig. 6h, Dunnett test details) ([7]; Row 5 (-4)): 24.98; Response, individual replicates (Fig. 6h source data) ([7]; x = -4 (log concentration; stimulant and units not given)): 22.8101 and 22.1668 and 28.5464 and 27.6474 and 25.9163 and 22.7794; Response, individual replicates (Fig. 6h source data) ([7]; x = -4.6 (log concentration; stimulant and units not given)): 21.6162 and 22.5956 and 18.2653 and 23.7306 and 21.555 and 21.0967; Response, individual replicates (Fig. 6h source data) ([7]; x = -5.2 (log concentration; stimulant and units not given)): 14.9991 and 16.3572 and 11.8762 and 12.0557 and 14.1862 and 19.6027; Response, individual replicates (Fig. 6h source data) ([7]; x = -5.8 (log concentration; stimulant and units not given)): 3.9587 and 2.199 and 2.053 and 2.932 and 3.753 and 7.914; Response, individual replicates (Fig. 6h source data) ([7]; x = -6.4 (log concentration; stimulant and units not given)): 1.264 and 0.797 and 0.5929 and 0.7387 and 0.7679 and 2.697

How did the Kd [1] turn out when `C/C(=C\COP(=O)(O)CP(=O)(O)O)CO` [Compound 7, (E)-((hydroxy((4-hydroxy-3-methylbut-2-en-1-yl)oxy)phosphoryl)methyl)phosphonic acid] was run?
The Kd was 4.62e-05 M.

And the EC50 (MIA PaCa-2 cells [2])?
Its EC50 is 1.46e-06 M.

How did the Kd [1] turn out when `C/C(=C\COP(=O)(O)C(F)P(=O)(O)O)CO` (stereo not drawn) [Compound 11, (E)-(fluoro(hydroxy((4-hydroxy-3-methylbut-2-en-1-yl)oxy)phosphoryl)methyl)phosphonic acid] was run?
The Kd was 2.81e-05 M.

And the EC50 (MIA PaCa-2 cells [2])?
Its EC50 is 8.71e-07 M.

Which results are given for `CC/C(=C\COP(=O)(O)OP(=O)(O)O)CO` [Compound 4, (E)-4-hydroxy-3-ethyl-but-2-enyl diphosphate]?
Kd [1]: 3.26e-07 M; EC50 (MIA PaCa-2 cells [2]): 4.5e-07 M

For `C=CC/C(=C\COP(=O)(O)OP(=O)(O)O)CO` [Compound 5, (E)-3-(hydroxymethyl)hexa-2,5-dienyl diphosphate], which Kd [1] is on record?
The Kd was 2.06e-07 M.

What about the EC50 (MIA PaCa-2 cells [2]) of the same molecule?
Its EC50 is 1.3e-08 M.

What does the source list for `C/C(=C\COP(=O)(O)C(Cl)P(=O)(O)O)CO` (stereo not drawn) [Compound 9, (E)-(chloro(hydroxy((4-hydroxy-3-methylbut-2-en-1-yl)oxy)phosphoryl)methyl)phosphonic acid]?
Kd [1]: 4.97e-05 M; EC50 (MIA PaCa-2 cells [2]): 3.5e-05 M
